From the supplement of paper PMC10307832

Compound: CN1CCC(CC1)OC2=CC(=C(C=C2)NC3=NC=C4C(=N3)N(C(=O)N4C)C5CCCC5)OC [AZ3146] + N=C(N)NC(=N)NCCc1ccccc1 [Phenformin] (partner 250 µM)
Experiment: relative viability (nuclei count vs DMSO), 5 days (fraction); higher = more cells survive
Settings: first compound 8 µM
Procedure, shortened: (§1)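 Cells from lung cancer lines were seeded into 1536-well plates and, one day later, dosed by pin tool. Treatments were either a single drug or a fixed dose of an anchor drug with five library-drug doses (not always all listed) in √10 steps. After 5 days, nuclei were stained in a one-step fixation (final 0.05% Triton X-100, 1% formaldehyde, 1 ug/ml Hoechst) and counted on 4× images, and relative viability is the treated-to-vehicle nuclei ratio, as the median of duplicate plates.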

Row | Cell Line | relative viability
1 | NCI-H1944 | 0.207
2 | HARA | 0.404
3 | COR-L23 | 0.336
4 | LCLC-103H | 0.38
5 | LXF-289 | 0.43
6 | NCI-H358 | 0.149
7 | NCI-H322M | 0.585
8 | LC-2-ad | 0.609
9 | HCC-827 | 0.348
10 | A549 | 0.0734
11 | NCI-H596 | 0.797
12 | NCI-H1563 | 0.644

Compound: CCOC(=O)CCNc1cc(N2CCc3ccccc3CC2)nc(-c2ccccn2)n1 [GSK-J4] + COc1cccc2cc(-c3nc([C@H]4CC[C@H](C(=O)O)CC4)n4ncnc(N)c34)[nH]c12 [OSI-027] (partner 0.5 µM)
Experiment: as above
Settings: first compound 0.5 µM
Procedure, shortened: as §1

Row | Cell Line | relative viability
13 | NCI-H522 | 0.78
14 | NCI-H1623 | 0.438
15 | PC-14 | 0.844
16 | NCI-H1666 | 0.836
17 | EKVX | 0.673
18 | NCI-H1755 | 0.623
19 | NCI-H2023 | 0.409
20 | HCC-78 | 0.351
21 | SK-LU-1 | 0.339
22 | PC-3 [JPC-3] | 0.71
23 | LOU-NH91 | 0.749
24 | NCI-H647 | 0.674
25 | NCI-H23 | 0.657
26 | EPLC-272H | 0.313
27 | NCI-H2126 | 0.706
28 | ChaGo-K-1 | 0.591
29 | HCC-44 | 0.51

Row | Cell Line | relative viability
30 | NCI-H1734 | 0.544
31 | NCI-H650 | 0.508
32 | LK-2 | 0.268
33 | NCI-H2228 | 0.593
34 | NCI-H2342 | 0.669
35 | NCI-H1944 | 0.466
36 | HARA | 0.548
37 | COR-L23 | 0.753
38 | LCLC-103H | 0.438
39 | LXF-289 | 0.783
40 | NCI-H358 | 0.765
41 | NCI-H322M | 0.556
42 | LC-2-ad | 0.828
43 | HCC-827 | 0.751
44 | NCI-H1648 | 0.239
45 | NCI-H596 | 0.72
46 | NCI-H1563 | 0.796

Same assay, conditions: first compound 1.581 µM

Row | Cell Line | relative viability
47 | NCI-H522 | 0.637
48 | NCI-H1623 | 0.456
49 | PC-14 | 0.759
50 | NCI-H1666 | 0.738
51 | EKVX | 0.412
52 | NCI-H1755 | 0.468
53 | HCC-78 | 0.355
54 | SK-LU-1 | 0.318
55 | PC-3 [JPC-3] | 0.65
56 | LOU-NH91 | 0.721
57 | NCI-H647 | 0.513
58 | NCI-H23 | 0.363
59 | EPLC-272H | 0.255
60 | NCI-H2126 | 0.7
61 | ChaGo-K-1 | 0.419
62 | HCC-44 | 0.31

Row | Cell Line | relative viability
63 | NCI-H1734 | 0.518
64 | NCI-H650 | 0.447
65 | LK-2 | 0.193
66 | NCI-H2228 | 0.544
67 | NCI-H2342 | 0.626
68 | NCI-H1944 | 0.399
69 | COR-L23 | 0.603
70 | LCLC-103H | 0.325
71 | LXF-289 | 0.583
72 | NCI-H358 | 0.68
73 | NCI-H322M | 0.506
74 | LC-2-ad | 0.759
75 | HCC-827 | 0.635
76 | NCI-H596 | 0.767
77 | NCI-H1563 | 0.766

Same assay, conditions: first compound 5 µM

Row | Cell Line | relative viability
78 | NCI-H522 | 0.541
79 | NCI-H1623 | 0.48
80 | PC-14 | 0.777
81 | NCI-H1666 | 1.15
82 | EKVX | 0.619
83 | NCI-H1755 | 0.571
84 | NCI-H2023 | 0.403
85 | HCC-78 | 0.727
86 | SK-LU-1 | 0.258
87 | PC-3 [JPC-3] | 0.737
88 | LOU-NH91 | 0.56
89 | NCI-H647 | 0.391
90 | NCI-H23 | 0.535
91 | EPLC-272H | 0.261
92 | NCI-H2126 | 0.949
93 | ChaGo-K-1 | 0.441

Row | Cell Line | relative viability
94 | NCI-H1734 | 0.489
95 | NCI-H650 | 0.356
96 | LK-2 | 0.204
97 | NCI-H2228 | 0.616
98 | NCI-H2342 | 0.662
99 | NCI-H1944 | 0.309
100 | LCLC-103H | 0.379
101 | LXF-289 | 0.53
102 | NCI-H358 | 0.795
103 | NCI-H322M | 0.637
104 | LC-2-ad | 0.659
105 | HCC-827 | 0.792
106 | NCI-H1648 | 0.308
107 | NCI-H596 | 0.857
108 | NCI-H1563 | 0.659

Same assay, conditions: first compound 15.81 µM

Row | Cell Line | relative viability
109 | NCI-H522 | 0.585
110 | NCI-H1623 | 0.406
111 | PC-14 | 0.778
112 | NCI-H1666 | 0.763
113 | EKVX | 0.6
114 | NCI-H1755 | 0.553
115 | NCI-H2023 | 0.321
116 | HCC-78 | 0.368
117 | SK-LU-1 | 0.292
118 | PC-3 [JPC-3] | 0.585
119 | LOU-NH91 | 0.69
120 | NCI-H647 | 0.594
121 | NCI-H23 | 0.41
122 | EPLC-272H | 0.293
123 | NCI-H2126 | 0.576
124 | ChaGo-K-1 | 0.533
125 | HCC-44 | 0.387

Row | Cell Line | relative viability
126 | NCI-H1734 | 0.445
127 | NCI-H650 | 0.427
128 | LK-2 | 0.152
129 | NCI-H2228 | 0.415
130 | NCI-H2342 | 0.615
131 | NCI-H1944 | 0.296
132 | HARA | 0.282
133 | COR-L23 | 0.733
134 | LCLC-103H | 0.432
135 | LXF-289 | 0.711
136 | NCI-H358 | 0.504
137 | NCI-H322M | 0.504
138 | LC-2-ad | 0.623
139 | HCC-827 | 0.576
140 | NCI-H1648 | 0.262
141 | NCI-H596 | 0.464
142 | NCI-H1563 | 0.659

Same assay, conditions: first compound 50 µM

Row | Cell Line | relative viability
143 | NCI-H522 | 0.543
144 | NCI-H1623 | 0.435
145 | PC-14 | 0.694
146 | NCI-H1666 | 0.648
147 | EKVX | 0.567
148 | NCI-H1755 | 0.509
149 | NCI-H2023 | 0.194
150 | HCC-78 | 0.409
151 | SK-LU-1 | 0.218
152 | PC-3 [JPC-3] | 0.732
153 | LOU-NH91 | 0.792
154 | NCI-H647 | 0.774
155 | NCI-H23 | 0.392
156 | EPLC-272H | 0.192
157 | NCI-H2126 | 0.45
158 | ChaGo-K-1 | 0.428
159 | HCC-44 | 0.483
160 | NCI-H1734 | 0.372
